Measured values taken from ChEMBL document CHEMBL5550161, “Discovery of novel small molecules targeting the USP21/JAK2/STAT3 axis for the treatment of triple-negative breast cancer” (Eur J Med Chem, 2024).
Active and inactive are the calls of the source. The rule behind the calls is not given here.

How the values were obtained:
MDA-MB-231 = assay: Anti-proliferative activity against human MDA-MB-231 cells assessed as cell growth inhibition incubated for 72 hrs by MTT assay; type: functional, cell-based; details: MDA-MB-231, 72 h
HCC1806 [1] = assay: Anti-proliferative activity against human HCC1806 cells assessed as cell growth inhibition incubated for 72 hrs by MTT assay; type: functional, cell-based; details: HCC1806, 72 h
Hs-578T = assay: Anti-proliferative activity against human Hs-578T cells assessed as cell growth inhibition incubated for 72 hrs by MTT assay; type: functional, cell-based
HCC1806 [2] = assay: Antitumor activity against human HCC1806 cells xenografted in Balb/c mouse assessed as reduction in tumor weight at 2.5 mg/kg, ip administered once a week measured after 14 days; type: functional, organism-based; details: time 14.0 day
HCC1806 [3] = assay: Antitumor activity against human HCC1806 cells xenografted in Balb/c mouse at 2.5 mg/kg, ip administered once a week measured after 14 days relative to control; type: functional; details: HCC1806, 336 h, time 14 day, read-out: TGI

IC50 (MDA-MB-231): 210 nM
IC50 (HCC1806 [1]): 340 nM
Structure (SMILES): COc1cccc2c1C(=O)c1c(O)c3c(c(O)c1C2=O)C[C@@](O)(C(=O)CO)C[C@@H]3O[C@H]1C[C@H](N)[C@H](O)[C@H](C)O1 [DOXORUBICIN]
IC50 (Hs-578T): 1070 nM
Activity (HCC1806 [2]): Active
inhibition in vivo at 2.5 mg/kg (HCC1806 [3]): 43.2%
